Reference: patent US8609723B2 (Beijing Dingguochangsheng Biotech., Co., Ltd., priority 2008, dated 2013)

Columns and labels:
male ICR mice [1] = experiment: Forced swimming test of mice; format: in vivo; settings: 18.4 mg/kg single administration, vs control group
Method: The mice were forced to swim on Days 3, 7 and 14 after administration, except that such experiment was not performed for the curcumin group on Day 14.
Twenty four hours before the formal test, the mice were placed into a round glass container (height: 25 cm, diameter: 10 cm) filled with water (depth: 10 cm) with a temperature of 24±1° C., and forced to conduct swim training for 15 min. Twenty four hours later, the mice were placed into the round glass container filled with water (depth: 10 cm) again and forced to swim for 6 min. The accumulative immobile time within the last 4 min was observed and recorded for each mouse. The immobile time is intended to mean the period within which the mouse stops to struggle, floats in the water and keeps immobile, or only makes a few slight movements that are necessary to keep its head floating on the surface of water.

S-180 sarcoma cells [2] = experiment: Antitumor experiment of tumor S-180-bearing mice; format: in vivo; settings: 7-day dosage by single administration, 7 days
Source text: During the experiment, the mice were inoculated with S-180 sarcoma cells (×10^7) in armpits. […] Seven days later, the mice were sacrificed by decollation. The tumors were removed, and the mice and the tumors were weighed separately.

S-180 sarcoma cells [3] = experiment: Survival experiment of tumor-bearing mice; format: in vivo; settings: S-180-bearing mice, 7-day dosage by single administration; 95% confidence interval 12.8~20.2 days
Method: During the experiment, the mice were inoculated with S-180 sarcoma cells (×10^5) in armpits, and the next day the administration begins. The survival rate was recorded for each group.

male ICR mice [4] = experiment: Tail suspension test in mice; format: in vivo; settings: 18.4 mg/kg single administration, vs control group
Method: The tail suspension test was carried out for each of these groups on Days 3, 7 and 14 after administration, except that such experiment was not performed for the curcumin group on Day 14. Tails of the mice were taped on a special iron stand at 1 cm from the tips, whilst keeping the mice staying at a height of 50 cm from ground. Performance of the mice was observed within 6 min, and the accumulative immobile time within the last 4 min was recoded for each mouse.

[5] = test system: Hepatic cancer cell HepG2; experiment: Inhibitory effect on tumor cells, MTT method; format: cell-based; settings: Hepatic cancer cell HepG2, 25 μM, 72 h
Method: (§1) The tumor cells with a stable passage feature, including Hela tumor cells, renal cancer cells, breast cancer cells, gastric cancer cells, rectal cancer cells, pulmonary cancer cells, hepatic cancer cells HepG2, prostate cancer cells, esophageal cancer cells, sarcoma cells, glioma cells, melanoma cells, lymphoma cells, and bladder cancer cells, were counted under a microscope (×10^4), and cultured in a 96-well plate under CO2 saturated water vapor for 24 h.

Esophageal cancer cell = experiment: Inhibitory effect on tumor cells, MTT method; format: cell-based; settings: 25 μM, 72 h
Method: as §1

[6] = test system: Pulmonary cancer cell A549; experiment: Inhibitory effect on tumor cells, MTT method; format: cell-based; settings: Pulmonary cancer cell A549, 25 μM, 72 h
Method: as §1

Hela cell = experiment: Inhibitory effect on tumor cells, MTT method; format: cell-based; settings: 25 μM, 72 h
Method: as §1

[7] = test system: Gastric cancer cell MGC80-3; experiment: Inhibitory effect on tumor cells, MTT method; format: cell-based; settings: Gastric cancer cell MGC80-3, 25 μM, 72 h
Method: as §1

Renal cancer cell 7860 = experiment: Inhibitory effect on tumor cells, MTT method; format: cell-based; settings: Renal cancer cell 7860, 25 μM, 72 h
Method: as §1

Sarcoma cell = experiment: Inhibitory effect on tumor cells, MTT method; format: cell-based; settings: 25 μM, 72 h
Method: as §1

[8] = test system: Rectal cancer cell HCT116; experiment: Inhibitory effect on tumor cells, MTT method; format: cell-based; settings: Rectal cancer cell HCT116, 25 μM, 72 h
Method: as §1

Breast cancer cell BT474 = experiment: Inhibitory effect on tumor cells, MTT method; format: cell-based; settings: Breast cancer cell BT474, 25 μM, 72 h
Method: as §1

Melanoma cell = experiment: Inhibitory effect on tumor cells, MTT method; format: cell-based; settings: 25 μM, 72 h
Method: as §1

Glioma cell = experiment: Inhibitory effect on tumor cells, MTT method; format: cell-based; settings: 25 μM, 72 h
Method: as §1

Prostate cancer cell = experiment: Inhibitory effect on tumor cells, MTT method; format: cell-based; settings: 25 μM, 72 h
Method: as §1

Bladder cancer cell = experiment: Inhibitory effect on tumor cells, MTT method; format: cell-based; settings: 25 μM, 72 h
Method: as §1

Lymphoma cell = experiment: Inhibitory effect on tumor cells, MTT method; format: cell-based; settings: 25 μM, 72 h
Method: as §1

S-180 cells = experiment: Effect on apoptosis of tumor cells, cell cycle by flow cytometry; format: in vivo, mice; settings: sarcoma cell cycle, S-180 tumor fluid, 7 days
Source text: During the experiment, the mice were inoculated with S-180 cells (×10^7) in armpits. Seven days later, the mice were sacrificed by decollation and the tumors were removed. Tumor fluid was collected from tumors, and used for determining cell cycle by flow cytometry after ethanol fixation.

[9] = test system: 5-HT, NA, DA and metabolites thereof in hippocampus; experiment: Detection of monoamine and metabolites thereof in brains of mice; format: in vivo; settings: 18.4 mg/kg
Method: Hippocampus was collected immediately on ice, weighed, put into an Eppendorf tube and kept in refrigeratory at −80° C. To each 100 mg brain tissue, 200 μl ice-cooled Solution A (0.4 mol/L HCLO4) was added. The mixture was homogenized ultrasonically in a ice bath, kept in dark at 4° C. for 60 min, and centrifuged for 20 min (12,000 rpm, 4° C.). […] The mixture was vortexed thoroughly for 10 min, kept at 4° C. in dark for 60 min, and centrifuged again for 20 min (12,000 rpm, 4° C.). The supernatant was collected and measured for the content of monoamine. The contents of 5-HT, NA, DA, 5-HIAA and DOPAC in brain tissue were determined by High Effective Liquid Phase Electrochemistry. […] The contents of monoamine and metabolites thereof in brain tissue were shown as ng/g wet tissue weight.

[10] = first line of group (Day 3 presumed)
[11] = second line of group (Day 7 presumed)

curcumin decanoate [long acting curcumin]
reduced the accumulative immobile time (forced swimming, mice) (male ICR mice [1]; 3 days after administration): 62.1%
reduced the accumulative immobile time (forced swimming, mice) (male ICR mice [1]; 7 days after administration): 74.7%
reduced the accumulative immobile time (forced swimming, mice) (male ICR mice [1]; 14 days after administration): 37.8%
inhibitory rate of tumors (S-180 sarcoma cells [2]; high dosage group): 50.1%
inhibitory rate of tumors (S-180 sarcoma cells [2]; low dosage group): 28.5%
inhibitory rate of tumors (S-180 sarcoma cells [2]; medium dosage group): 57.8%
medium survival time (S-180 sarcoma cells [3]): 17.5 days
reduced the accumulative immobile time (tail suspension) (male ICR mice [4]; 3 days after administration): 50.7%
reduced the accumulative immobile time (tail suspension) (male ICR mice [4]; 7 days after administration): 59.5%
reduced the accumulative immobile time (tail suspension) (male ICR mice [4]; 14 days after administration): 31.8%
Inhibitory rate (%) [5]: 43.7 ± 1.4%
Inhibitory rate (%) (Esophageal cancer cell): 35.5 ± 1.1%
Inhibitory rate (%) [6]: 35.9 ± 1.2%
Inhibitory rate (%) (Hela cell): 37.3 ± 2.4%
Inhibitory rate (%) [7]: 42.6 ± 1.7%
Inhibitory rate (%) (Renal cancer cell 7860): 60.6%
Inhibitory rate (%) (Sarcoma cell): 45.5 ± 1.6%
Inhibitory rate (%) [8]: 58.9 ± 2.1%
Inhibitory rate (%) (Breast cancer cell BT474): 52.7 ± 1.6%
Inhibitory rate (%) (Melanoma cell): 49.9 ± 2.0. %
Inhibitory rate (%) (Glioma cell): 58.8 ± 1.5%
Inhibitory rate (%) (Prostate cancer cell): 39.7 ± 1.3%
Inhibitory rate (%) (Bladder cancer cell): 55.2 ± 1.0%
Inhibitory rate (%) (Lymphoma cell): 55.8 ± 1.7%
APO % (apoptosis level of tumor cells) (S-180 cells): 44.7%
G1 % (S-180 cells): 64.9%
G2 % (S-180 cells): 1.0%
S % (S-180 cells): 34.1%
Hippocampus 5-HIAA [9, 10]: 183.4 ± 14.2 ng/g
Hippocampus 5-HIAA/5-HT [9, 10]: 0.25 ± 0.02
Hippocampus 5-HT [9, 10]: 713.1 ± 19.2 ng/g
Hippocampus DOPAC [9, 10]: 13.1 ± 2.0 ng/g
Hippocampus Dopamine [9, 10]: 20.3 ± 5.9 ng/g
Hippocampus Noradrenaline [9, 10]: 369.9 ± 12.3 ng/g
Hippocampus 5-HIAA [9, 11]: 186.3 ± 8.4 ng/g
Hippocampus 5-HIAA/5-HT [9, 11]: 0.25 ± 0.03
Hippocampus 5-HT [9, 11]: 725.0 ± 30.4 ng/g
Hippocampus DOPAC [9, 11]: 14.6 ± 2.1 ng/g
Hippocampus Dopamine [9, 11]: 21.2 ± 5.6 ng/g
Hippocampus Noradrenaline [9, 11]: 372.2 ± 21.6 ng/g
